Measurements taken from paper PMC12388980, “Development of AGT-7: An Innovative ^99mTc-Labeled Theranostic Platform for Glioblastoma Imaging and Therapy” (Pharmaceuticals, 2025).

Key:
[1] = tested on: T98 cells; test: Flow cytometric analysis of DNA cell cycle, T98 cells; format: cell-based; settings: treated at IC50 for 72 h
Procedure: (§1) Subsequently, cells were washed with phosphate-buffered saline (PBS) solution, harvested by incubation with trypsin, and held at 37 °C for 20 min with a PI working solution ([…], and 0.1% Triton X-100). PI fluorescence data were collected using a flow cytometer (Cytognos S.L., Polígono La Serna, Nave 9, 37900 Santa Marta de Tormes, Salamanca, Spain) and were analyzed using GraphPad Prism Version 6 software and MedCalc software (trial version).
(§2) Figure 5 Graphical representation of cell cycle distribution in T98 (A) and U87 (B) cell lines after treatment with AGT-7 in IC50 concentration. Experiment was carried out three times, and values are means of three repetitions.

[2] = LC-MS-based plasma stability in human plasma; format: in vitro ADME; settings: 1 μM, 37 °C, 9-h incubation period, compared to TMZ
Procedure: Plasma samples were diluted 1:1 (v/v) with phosphate buffer (pH 7.4). […] The mixtures were vortexed vigorously and incubated at 37 °C on a thermoshaker (Kisker Biotech, Steinfurt, Germany) at 600 rpm. Reactions were terminated at 0, 1, 2, 3, 4, 6, 9, and 24 h by transferring 150 μL of the incubated plasma into 450 μL of ice-cold ACN. After vortexing, samples were stored at −20 °C for 30 min and centrifuged, and 200 μL of the supernatant was diluted with 600 μL of water. The resulting solution was filtered through a 0.22 μm nylon syringe filter (Target Analysis, Thessaloniki, Greece) into 2 mL glass vials before analysis.
The mobile phase consisted of (A) 0.1% formic acid in water and (B) 0.05% formic acid in ACN, delivered constantly at 0.2 mL/min. The gradient program was optimized as follows: 1% B (0.00–3.00 min), linear ramp to 100% B (3.00–10.00 min), hold at 100% B (10.00–12.00 min), return to initial conditions (12.00–12.01 min), and re-equilibration at 1% B (12.01–15.00 min). […]
Full-scan MS data were acquired in MS^E mode with two alternating collision energy functions: low energy (4 eV) for precursor ions and ramped high energy (25–45 eV) for fragment ions. […] System control and data acquisition were managed using MassLynx v4.2 (SCN 1029), while UNIFI v1.9.4.053 facilitated data processing, including adduct identification ([M+H]⁺, [M+Na]⁺, [M+H2]^2+) and relative quantitation. […]

[3] = tested on: T98 cells; test: Trypan blue exclusion cytotoxicity assay, T98 cells; format: cell-based; settings: Homo sapiens, T98 cell line, 72 h post-treatment
Procedure: (§3) To explore the effect of AGT-7 on the viability of GBM cell lines, T98 and U87 cells were cultured with escalating concentrations of the compounds for 72 h, and afterward, the trypan blue exclusion assay was carried out.
(§4) The sensitivity of T98 and U87 cells to the compound was assessed using the trypan blue exclusion test. A total of 20,000 cells were seeded onto 12-well plates and incubated in a humidified atmosphere. After 24 h, cells were treated with the compound at concentrations of 20–100 μM for 72 h followed by trypan blue exclusion analysis. The results were derived as the mean of three independent experiments.
(§5) Figure 3 Cytotoxic effect of AGT-7 on T98 (A) and U87 cell lines (B) 72 h after treatment. The results are the average of three independent experiments and are standardized to untreated cells. The IC50 values were calculated using the GraphPad Prism Version 6 non-linear regression analysis model.
as §5, with “4” for “3”, “AGT-7 and TMZ” for “AGT-7”

[4] = tested on: zebrafish (Danio rerio) embryos; test: Acute toxicity test in zebrafish embryos (OECD 2010); format: in vivo; settings: 96 hpf
Procedure: Prior to advancing the biological evaluation of AGT-7, it was essential to assess its in vivo acute toxicity. To this end, we employed a standard acute exposure assay using zebrafish (Danio rerio) embryos as a vertebrate model system. Drug exposure was for 96 h post-fertilization (hpf), following the guidelines established by the Organisation for Economic Co-operation and Development (OECD, 2010) for fish embryo toxicity testing. […] This alignment between therapeutically effective concentrations and sub-lethal doses in vivo underscores a favorable safety profile for AGT-7 and supports its further preclinical development.
Adult zebrafish specimens of the wild-type strain (AB) were maintained in a colony room, in a recirculated system, at 28 ± 1 °C, pH 6.5–7.5, and water conductivity of 500 ± 50 μS cm−1 with a 14 h light/10 h dark photoperiod (lights on at 8:00 a.m.). Feeding of the fish was performed twice a day with zebrafish feed (Zebrafeed, Sparos, […]) following common practices. Sexually mature zebrafish (at least three months old) were used for spawning.
The collection of zebrafish eggs was performed at the beginning of the 14 h light phase following the mating procedure that took place overnight. […] The dechorionation process of the eggs followed at 24 h post-fertilization (hpf).
The dechorionated embryos were placed in 24-well culture plates (2 embryos per well, 1.5 mL of solution per well), and each experiment was performed in triplicate. Preliminary tests were performed to evaluate the range of 0–100% mortality. DMSO (0.1%) was used as dissolver and as well as vehicle control (non-exposed). In the current study, seven different concentrations of AGT-7 were tested (0.0, 10.0, 20.0, 40.0, 60.0, 80.0, and 100.0 μΜ). In total, 881 embryos were studied, of which 96 belonged to the non-exposed group. […] Each experiment lasted 96 h post fertilization time (hpf) and began at 24 hpf, approximately at the 26-somite point, according to Kimmel et al..
It is essential to apply an acute test that uses short-term exposure (96hpf) to AGT-7 and then to determine the concentration that is lethal to 50% of zebrafish embryos. This is a valuable indicator of acute fish toxicity. According to OECD 2010, indications of death of an embryo include coagulation of the embryo, lack of somite formation, non-detachment of the tail, and/or lack of heartbeat.
Toxicity assays (LD50 values) and confidence limits (LD25 and LD75) were calculated based on cumulative mortality at the end of the experiment (96 hpf). The LD50 values were assessed using Regression Probit analysis (the chi-square test, Pearson goodness of fit test, and 95% confidence interval).

[5] = tested on: U87 cells; test: Trypan blue exclusion cytotoxicity assay, U87 cells; format: cell-based; settings: Homo sapiens, U-87 MG, U87 cell line, 72 h post-treatment
Procedure: as §3, §4, §5
as §5, with “4” for “3”, “AGT-7 and TMZ” for “AGT-7”

[6] = tested on: U87 cells; test: Flow cytometric analysis of DNA cell cycle, U87 cells; format: cell-based; settings: treated at IC50 for 72 h
Procedure: as §1, §2

| SMILES | effect on cell cycle progression [1] | plasma stability profile [2] | IC50 [3] [µM] | LD25 [4] [µM] | LD75 [4] [µM] | concentrations with no significant mortality [4] | LD50 ([4]; cumulative mortality, probit analysis) [µM] | IC50 [5] [µM] | effect on cell cycle progression [6] |
| --- | --- | --- | --- | --- | --- | --- | --- | --- | --- |
| Cn1nnc2c(C(=O)NCCCCN(Cc3ccccn3)Cc3ccccn3)ncn2c1=O [AGT-7] | no significant effect on cell cycle progression | very similar to that of the parent drug, TMZ | 27 | 35.54 | 61.64 | up to 30 μM | 46.81 | 30 | no significant effect on cell cycle progression |
| Cn1nnc2c(C(N)=O)ncn2c1=O [TMZ, temozolomide, reference compound] |  |  | 143 |  |  |  |  | 50 |  |
